These results are taken from paper PMC3817851, “Enzyme activity effects of N-terminal His-tag attached to catalytic sub-unit of phosphoinositide-3-kinase” (Bioscience Reports, 2013).

Common to all, as to format: biochemical
Test [1] addresses T1, p110γ (PI 3-Kγ) (Homo sapiens, UniProt P48736).
T1 construct: gene PIK3CG; catalytic subunit only, N-His6-rTEV tag (tag removed by rTEV); baculovirus/Sf9
Nature of the test: HTRF lipid kinase assay. (TR-FRET usually uses a lanthanide donor and a delayed reading to cut background.)

In test [2] the target is T2, p110α (PI 3-Kα, p110α/p85α) (Homo sapiens, UniProt P42336).
T2 construct: gene PIK3CA; full-length p110α with N-His6-rTEV tag (tag removed by rTEV) co-expressed with full-length p85α; baculovirus/Sf9; IMAC, MonoQ; heterodimer; with Phosphatidylinositol 3-kinase regulatory subunit alpha
Nature of the test: HTRF kinetics, […] ATP. The conditions noted are these: PI([…])P2 co-substrate, His-tag removed.

The target of test [3] is T3, p110δ (PI 3-Kδ, p110δ/p85α) (Homo sapiens, UniProt O00329).
T3 construct: gene PIK3CD; full-length p110δ with N-His6-rTEV tag (tag removed by rTEV) co-expressed with full-length p85α; baculovirus/Sf9; IMAC, MonoQ; heterodimer; with Phosphatidylinositol 3-kinase regulatory subunit alpha
Nature of the test: HTRF kinetics, […] ATP. To be noted: PI([…])P2 co-substrate, His-tag removed.

Test [4] concerns the target T4, p110β (PI 3-Kβ, p110β/p85α) (Homo sapiens, UniProt P42338).
T4 construct: gene PIK3CB; full-length p110β with N-His6-rTEV tag (tag removed by rTEV) co-expressed with full-length p85α; baculovirus/Sf9; IMAC, MonoQ; heterodimer; with Phosphatidylinositol 3-kinase regulatory subunit alpha
Nature of the test: HTRF kinetics, […] ATP. To be noted: PI([…])P2 co-substrate, His-tag removed.

Test [5] concerns the target T1, p110γ (PI 3-Kγ). Nature of the test: HTRF kinetics, […] ATP. To be noted: PI([…])P2 co-substrate, His-tag removed.
Test [6] has as its target T4, p110β (PI 3-Kβ, p110β/p85α). Nature of the test: HTRF lipid kinase assay. The conditions noted are these: […] ATP, PI([…])P2 substrate, His-tag removed.

T1 sequence (P48736 whole entry): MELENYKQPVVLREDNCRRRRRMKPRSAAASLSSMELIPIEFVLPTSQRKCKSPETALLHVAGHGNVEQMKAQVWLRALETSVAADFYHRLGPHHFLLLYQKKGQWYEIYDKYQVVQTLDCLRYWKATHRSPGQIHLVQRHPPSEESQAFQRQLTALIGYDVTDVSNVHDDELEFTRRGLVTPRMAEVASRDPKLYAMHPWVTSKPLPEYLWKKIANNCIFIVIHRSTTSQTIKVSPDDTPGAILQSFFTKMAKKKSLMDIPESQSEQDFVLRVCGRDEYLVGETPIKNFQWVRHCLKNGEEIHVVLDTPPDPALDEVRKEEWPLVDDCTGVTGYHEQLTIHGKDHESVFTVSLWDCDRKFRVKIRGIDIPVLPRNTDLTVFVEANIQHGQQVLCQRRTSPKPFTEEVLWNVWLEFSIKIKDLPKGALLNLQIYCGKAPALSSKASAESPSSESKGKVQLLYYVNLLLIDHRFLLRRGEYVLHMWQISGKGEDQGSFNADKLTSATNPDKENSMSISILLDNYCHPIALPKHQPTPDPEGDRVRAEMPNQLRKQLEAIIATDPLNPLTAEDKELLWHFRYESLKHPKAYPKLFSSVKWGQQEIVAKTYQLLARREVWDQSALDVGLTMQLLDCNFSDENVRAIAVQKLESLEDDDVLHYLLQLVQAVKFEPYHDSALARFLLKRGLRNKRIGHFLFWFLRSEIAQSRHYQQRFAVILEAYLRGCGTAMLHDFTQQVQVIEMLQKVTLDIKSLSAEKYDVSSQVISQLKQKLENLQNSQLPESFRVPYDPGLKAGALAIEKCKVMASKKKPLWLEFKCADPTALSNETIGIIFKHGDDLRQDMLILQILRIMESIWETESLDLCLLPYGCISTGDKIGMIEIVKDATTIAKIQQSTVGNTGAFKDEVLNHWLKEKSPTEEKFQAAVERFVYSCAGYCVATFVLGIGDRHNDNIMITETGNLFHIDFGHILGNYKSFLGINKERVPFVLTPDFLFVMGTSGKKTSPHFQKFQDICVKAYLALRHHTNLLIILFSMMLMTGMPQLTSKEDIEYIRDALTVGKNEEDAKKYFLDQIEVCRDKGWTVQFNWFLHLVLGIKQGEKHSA
T4 sequence (P42338 whole entry): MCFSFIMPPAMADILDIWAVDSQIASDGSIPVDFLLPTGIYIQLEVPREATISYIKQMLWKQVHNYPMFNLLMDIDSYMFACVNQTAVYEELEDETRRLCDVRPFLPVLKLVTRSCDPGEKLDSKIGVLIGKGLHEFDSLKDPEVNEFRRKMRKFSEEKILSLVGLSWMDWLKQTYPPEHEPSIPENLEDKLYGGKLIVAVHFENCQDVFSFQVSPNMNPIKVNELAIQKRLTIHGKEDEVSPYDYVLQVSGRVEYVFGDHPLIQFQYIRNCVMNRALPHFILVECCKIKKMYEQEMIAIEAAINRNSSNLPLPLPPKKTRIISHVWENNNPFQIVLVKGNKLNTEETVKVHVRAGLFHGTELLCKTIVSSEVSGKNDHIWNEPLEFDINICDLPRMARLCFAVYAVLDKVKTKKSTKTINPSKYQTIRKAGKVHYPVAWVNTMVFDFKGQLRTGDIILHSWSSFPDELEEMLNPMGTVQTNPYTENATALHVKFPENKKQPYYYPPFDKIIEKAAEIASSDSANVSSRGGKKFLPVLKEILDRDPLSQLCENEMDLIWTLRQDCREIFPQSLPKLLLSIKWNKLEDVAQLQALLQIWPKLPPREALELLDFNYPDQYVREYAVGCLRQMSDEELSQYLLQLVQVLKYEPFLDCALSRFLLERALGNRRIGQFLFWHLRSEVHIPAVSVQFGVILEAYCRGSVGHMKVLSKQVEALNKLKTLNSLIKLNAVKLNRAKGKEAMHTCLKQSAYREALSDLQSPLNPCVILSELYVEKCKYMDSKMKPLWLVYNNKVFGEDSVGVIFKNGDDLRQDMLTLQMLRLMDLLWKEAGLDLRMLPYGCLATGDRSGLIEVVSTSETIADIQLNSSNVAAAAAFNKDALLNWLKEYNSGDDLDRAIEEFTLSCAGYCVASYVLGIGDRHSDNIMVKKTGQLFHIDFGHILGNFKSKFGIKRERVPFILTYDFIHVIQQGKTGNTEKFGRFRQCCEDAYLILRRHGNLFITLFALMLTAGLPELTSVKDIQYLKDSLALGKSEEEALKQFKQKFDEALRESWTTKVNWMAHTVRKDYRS
T4 sequence (P27986 2-724 partner): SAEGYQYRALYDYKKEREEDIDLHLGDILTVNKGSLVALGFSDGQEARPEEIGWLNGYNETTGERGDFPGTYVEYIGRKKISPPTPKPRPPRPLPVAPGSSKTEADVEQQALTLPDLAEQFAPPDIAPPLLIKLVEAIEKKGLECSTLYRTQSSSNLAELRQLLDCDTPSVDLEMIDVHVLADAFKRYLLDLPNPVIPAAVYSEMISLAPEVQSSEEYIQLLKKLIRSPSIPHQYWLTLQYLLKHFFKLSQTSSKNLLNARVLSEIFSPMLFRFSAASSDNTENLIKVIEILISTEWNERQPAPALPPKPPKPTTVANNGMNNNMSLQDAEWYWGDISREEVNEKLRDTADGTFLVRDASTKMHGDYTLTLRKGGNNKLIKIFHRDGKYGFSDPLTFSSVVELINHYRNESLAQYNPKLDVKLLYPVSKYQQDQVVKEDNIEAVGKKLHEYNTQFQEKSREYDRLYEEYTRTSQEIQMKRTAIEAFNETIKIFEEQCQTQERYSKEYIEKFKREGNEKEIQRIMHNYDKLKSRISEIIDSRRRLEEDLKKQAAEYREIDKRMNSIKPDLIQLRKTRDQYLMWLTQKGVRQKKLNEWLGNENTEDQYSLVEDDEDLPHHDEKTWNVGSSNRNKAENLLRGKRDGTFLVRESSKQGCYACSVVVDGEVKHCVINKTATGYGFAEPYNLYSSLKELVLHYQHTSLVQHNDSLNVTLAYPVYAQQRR
T2 sequence (P42336 whole entry): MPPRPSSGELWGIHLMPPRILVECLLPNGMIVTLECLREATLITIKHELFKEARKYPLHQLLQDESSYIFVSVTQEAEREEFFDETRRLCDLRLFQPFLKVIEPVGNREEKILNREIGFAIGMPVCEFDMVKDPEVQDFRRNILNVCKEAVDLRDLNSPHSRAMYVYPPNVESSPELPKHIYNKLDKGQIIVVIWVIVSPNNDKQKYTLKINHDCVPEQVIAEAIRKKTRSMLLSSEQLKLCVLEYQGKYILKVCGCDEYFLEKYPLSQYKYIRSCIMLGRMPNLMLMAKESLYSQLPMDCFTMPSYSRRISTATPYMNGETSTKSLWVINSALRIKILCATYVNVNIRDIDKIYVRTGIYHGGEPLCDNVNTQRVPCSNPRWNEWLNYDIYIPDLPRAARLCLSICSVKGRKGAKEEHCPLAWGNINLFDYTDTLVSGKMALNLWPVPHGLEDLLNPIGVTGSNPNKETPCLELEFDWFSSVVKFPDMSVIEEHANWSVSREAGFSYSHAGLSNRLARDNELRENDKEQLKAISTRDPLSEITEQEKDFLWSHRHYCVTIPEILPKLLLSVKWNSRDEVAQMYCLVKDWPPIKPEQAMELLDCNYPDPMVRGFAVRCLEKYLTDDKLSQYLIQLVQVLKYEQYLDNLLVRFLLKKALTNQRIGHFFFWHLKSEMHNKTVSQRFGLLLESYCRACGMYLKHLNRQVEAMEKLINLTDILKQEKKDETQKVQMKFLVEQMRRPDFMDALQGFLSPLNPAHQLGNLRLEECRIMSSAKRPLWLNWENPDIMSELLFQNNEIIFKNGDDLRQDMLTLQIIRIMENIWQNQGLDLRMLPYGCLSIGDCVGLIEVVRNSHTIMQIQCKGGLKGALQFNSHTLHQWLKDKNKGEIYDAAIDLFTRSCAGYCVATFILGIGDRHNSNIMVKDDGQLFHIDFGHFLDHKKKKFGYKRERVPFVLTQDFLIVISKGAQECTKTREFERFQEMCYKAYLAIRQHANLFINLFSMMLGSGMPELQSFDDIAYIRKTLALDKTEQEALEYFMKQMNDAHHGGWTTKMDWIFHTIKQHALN
T2 sequence (P27986 2-724 partner): as the sequence (P27986 2-724 partner) above
T3 sequence (O00329 whole entry): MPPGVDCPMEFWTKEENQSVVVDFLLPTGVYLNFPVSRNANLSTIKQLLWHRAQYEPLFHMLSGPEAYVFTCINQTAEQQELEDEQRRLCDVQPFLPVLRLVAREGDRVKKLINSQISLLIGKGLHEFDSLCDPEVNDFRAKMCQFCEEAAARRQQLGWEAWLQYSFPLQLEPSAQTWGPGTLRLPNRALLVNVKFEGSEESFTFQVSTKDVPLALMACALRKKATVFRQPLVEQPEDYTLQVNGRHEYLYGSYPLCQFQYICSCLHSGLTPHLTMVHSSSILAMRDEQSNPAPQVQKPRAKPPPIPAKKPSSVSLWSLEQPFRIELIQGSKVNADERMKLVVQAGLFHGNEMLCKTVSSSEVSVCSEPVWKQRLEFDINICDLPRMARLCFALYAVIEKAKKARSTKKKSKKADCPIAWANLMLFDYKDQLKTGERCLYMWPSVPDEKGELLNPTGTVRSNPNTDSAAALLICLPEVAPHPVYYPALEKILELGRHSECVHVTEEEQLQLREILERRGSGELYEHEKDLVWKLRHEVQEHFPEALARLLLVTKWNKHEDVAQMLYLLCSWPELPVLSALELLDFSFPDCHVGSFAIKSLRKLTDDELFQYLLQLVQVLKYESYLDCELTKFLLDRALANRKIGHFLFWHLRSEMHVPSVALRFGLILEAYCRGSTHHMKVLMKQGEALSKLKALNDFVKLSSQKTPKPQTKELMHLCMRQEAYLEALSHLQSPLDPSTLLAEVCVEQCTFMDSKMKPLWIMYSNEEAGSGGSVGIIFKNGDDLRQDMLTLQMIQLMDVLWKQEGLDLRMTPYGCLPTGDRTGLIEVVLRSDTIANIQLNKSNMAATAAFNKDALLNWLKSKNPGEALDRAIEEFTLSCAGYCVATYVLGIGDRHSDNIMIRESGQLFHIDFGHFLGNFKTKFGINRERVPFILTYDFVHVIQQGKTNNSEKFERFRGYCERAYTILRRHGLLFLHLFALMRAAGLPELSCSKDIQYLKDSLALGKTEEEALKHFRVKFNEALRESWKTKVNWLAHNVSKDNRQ
T3 sequence (P27986 2-724 partner): as the sequence (P27986 2-724 partner) above

One may read the IC50 as the point on the concentration scale where inhibition reaches its midpoint. Low values mean inhibition by little substance, high ones a need for much substance. In turn, `Cc1ccc([N+](=O)[O-])cc1S(=O)(=O)N(C)/N=C/c1cnc2ccc(Br)cn12` [PIK-75] returned an IC50 at p110γ (PI 3-Kγ) [1] of 26 nM.
Turning to `Nc1ncnc2c1ncn2[C@@H]1O[C@H](COP(=O)(O)OP(=O)(O)OP(=O)(O)O)[C@@H](O)[C@H]1O` [ATP], the Km entry (in test [2]; in test [3]; in test [4]; at p110γ (PI 3-Kγ) [5]) was “(B) Km for ATP in μM” each time.
In the case of `Cc1cc([C@H](C)Nc2ccccc2)c2oc(N3CCOCC3)cc(=O)c2c1` [PIK108], the IC50 in test [6] was found to be 14 nM.
